How the values were obtained:
Adenosine receptor A2a = Adenosine receptor A2a (Homo sapiens, UniProt P29274)
[1] = molecular target: T1, Alpha-2C adrenergic receptor (Homo sapiens, UniProt P18825); format: functional
T1 sequence (P18825 whole entry): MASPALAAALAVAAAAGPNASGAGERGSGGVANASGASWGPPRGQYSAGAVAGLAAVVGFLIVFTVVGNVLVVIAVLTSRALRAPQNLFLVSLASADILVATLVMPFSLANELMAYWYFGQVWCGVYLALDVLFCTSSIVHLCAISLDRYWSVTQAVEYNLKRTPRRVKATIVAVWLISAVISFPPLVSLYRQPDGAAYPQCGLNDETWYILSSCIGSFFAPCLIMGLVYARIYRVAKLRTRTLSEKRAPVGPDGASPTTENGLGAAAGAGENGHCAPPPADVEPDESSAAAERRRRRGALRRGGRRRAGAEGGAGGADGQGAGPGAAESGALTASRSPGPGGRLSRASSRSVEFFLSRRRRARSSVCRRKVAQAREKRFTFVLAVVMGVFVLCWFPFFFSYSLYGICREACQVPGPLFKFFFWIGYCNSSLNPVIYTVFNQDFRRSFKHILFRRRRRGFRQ

[2] = molecular target: T2, Gastrin/cholecystokinin type B receptor (Homo sapiens, UniProt P32239)
T2 sequence (P32239 whole entry): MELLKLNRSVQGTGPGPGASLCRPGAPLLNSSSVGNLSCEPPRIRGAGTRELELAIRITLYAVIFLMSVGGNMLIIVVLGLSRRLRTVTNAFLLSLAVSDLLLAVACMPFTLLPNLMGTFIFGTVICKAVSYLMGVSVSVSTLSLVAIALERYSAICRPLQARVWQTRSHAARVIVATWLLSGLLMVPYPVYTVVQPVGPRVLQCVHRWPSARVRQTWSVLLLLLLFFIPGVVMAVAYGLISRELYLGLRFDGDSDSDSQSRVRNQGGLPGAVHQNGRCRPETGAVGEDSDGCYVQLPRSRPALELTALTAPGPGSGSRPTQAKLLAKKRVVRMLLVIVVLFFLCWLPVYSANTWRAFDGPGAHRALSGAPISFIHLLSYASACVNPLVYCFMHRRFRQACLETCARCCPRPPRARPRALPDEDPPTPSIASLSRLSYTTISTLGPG

[3] = molecular target: T3, Muscarinic acetylcholine receptor M1 (Homo sapiens, UniProt P11229); format: functional
T3 sequence (P11229 whole entry): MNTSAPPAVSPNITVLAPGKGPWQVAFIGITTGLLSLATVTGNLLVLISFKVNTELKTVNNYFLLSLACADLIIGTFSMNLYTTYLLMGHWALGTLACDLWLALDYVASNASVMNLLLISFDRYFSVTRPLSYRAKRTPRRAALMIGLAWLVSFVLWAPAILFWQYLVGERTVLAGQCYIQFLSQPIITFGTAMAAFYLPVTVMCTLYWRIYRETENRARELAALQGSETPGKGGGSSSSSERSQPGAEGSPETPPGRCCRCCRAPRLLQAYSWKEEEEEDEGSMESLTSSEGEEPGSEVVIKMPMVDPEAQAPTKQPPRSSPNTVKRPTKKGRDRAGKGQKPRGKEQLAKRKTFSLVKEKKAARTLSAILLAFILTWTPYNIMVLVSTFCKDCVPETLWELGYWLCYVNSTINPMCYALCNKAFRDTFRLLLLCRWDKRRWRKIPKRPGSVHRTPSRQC

[4] = molecular target: T4, Muscarinic acetylcholine receptor M2 (Homo sapiens, UniProt P08172); format: functional, cell-based
T4 sequence (P08172 whole entry): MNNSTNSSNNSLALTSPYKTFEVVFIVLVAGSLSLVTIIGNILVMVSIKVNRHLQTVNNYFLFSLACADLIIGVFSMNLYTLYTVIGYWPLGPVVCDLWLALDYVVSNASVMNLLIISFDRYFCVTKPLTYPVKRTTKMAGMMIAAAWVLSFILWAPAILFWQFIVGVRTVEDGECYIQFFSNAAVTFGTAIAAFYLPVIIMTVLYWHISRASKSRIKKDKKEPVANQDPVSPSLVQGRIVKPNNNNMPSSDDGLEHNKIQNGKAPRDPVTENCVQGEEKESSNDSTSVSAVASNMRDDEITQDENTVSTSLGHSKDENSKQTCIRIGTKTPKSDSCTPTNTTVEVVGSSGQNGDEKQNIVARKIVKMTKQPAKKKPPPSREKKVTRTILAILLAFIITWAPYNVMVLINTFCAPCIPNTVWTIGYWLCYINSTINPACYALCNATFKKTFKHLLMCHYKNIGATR

Cannabinoid receptor 1 = Cannabinoid receptor 1 (Homo sapiens, UniProt P21554); format: functional, cell-based
[5] = molecular target: Gamma-aminobutyric acid receptor subunit alpha-1 (Rattus norvegicus, UniProt P62813)
[6] = molecular target: Growth hormone secretagogue receptor type 1 (Homo sapiens, UniProt Q92847)
[7] = molecular target: 5-hydroxytryptamine receptor 2A (Homo sapiens, UniProt P28223); format: functional, cell-based
[8] = molecular target: 5-hydroxytryptamine receptor 2B (Homo sapiens, UniProt P41595); format: functional, cell-based
[9] = molecular target: T5, 5-hydroxytryptamine receptor 2C (Homo sapiens, UniProt P28335)
T5 sequence (P28335 whole entry): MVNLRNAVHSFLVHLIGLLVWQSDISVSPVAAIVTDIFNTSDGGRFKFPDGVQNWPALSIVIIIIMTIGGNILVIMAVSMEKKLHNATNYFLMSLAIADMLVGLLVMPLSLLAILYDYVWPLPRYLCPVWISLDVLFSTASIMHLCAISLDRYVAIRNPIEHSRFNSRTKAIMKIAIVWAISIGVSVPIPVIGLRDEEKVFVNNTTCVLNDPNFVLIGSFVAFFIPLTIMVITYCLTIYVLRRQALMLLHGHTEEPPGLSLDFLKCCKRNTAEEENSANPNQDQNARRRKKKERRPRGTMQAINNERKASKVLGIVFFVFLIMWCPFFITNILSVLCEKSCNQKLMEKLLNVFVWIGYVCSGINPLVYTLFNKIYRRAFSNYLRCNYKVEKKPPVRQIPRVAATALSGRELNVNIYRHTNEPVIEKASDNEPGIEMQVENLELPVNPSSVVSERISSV

Motilin receptor = Motilin receptor (Homo sapiens, UniProt O43193)
[10] = molecular target: Sodium-dependent dopamine transporter (Homo sapiens, UniProt Q01959)
[11] = molecular target: Sodium-dependent serotonin transporter (Homo sapiens, UniProt P31645)
D(3) dopamine receptor = D(3) dopamine receptor (Homo sapiens, UniProt P35462)
Also: assay procedure not described here.

Chain of 5-hydroxytryptamine receptor 2A (P28223 whole entry): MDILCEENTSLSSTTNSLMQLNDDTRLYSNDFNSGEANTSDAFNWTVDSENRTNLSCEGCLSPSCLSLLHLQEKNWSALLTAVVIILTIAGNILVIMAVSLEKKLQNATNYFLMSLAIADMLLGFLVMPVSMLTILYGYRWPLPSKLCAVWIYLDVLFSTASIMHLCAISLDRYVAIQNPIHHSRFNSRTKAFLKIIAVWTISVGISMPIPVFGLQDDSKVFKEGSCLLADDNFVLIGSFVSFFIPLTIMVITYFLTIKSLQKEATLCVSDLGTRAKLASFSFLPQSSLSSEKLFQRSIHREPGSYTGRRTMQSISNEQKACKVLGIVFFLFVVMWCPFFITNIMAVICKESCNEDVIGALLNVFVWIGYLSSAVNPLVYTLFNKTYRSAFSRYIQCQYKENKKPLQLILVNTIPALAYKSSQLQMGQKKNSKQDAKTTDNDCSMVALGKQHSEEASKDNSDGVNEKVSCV
Chain of 5-hydroxytryptamine receptor 2B (P41595 whole entry): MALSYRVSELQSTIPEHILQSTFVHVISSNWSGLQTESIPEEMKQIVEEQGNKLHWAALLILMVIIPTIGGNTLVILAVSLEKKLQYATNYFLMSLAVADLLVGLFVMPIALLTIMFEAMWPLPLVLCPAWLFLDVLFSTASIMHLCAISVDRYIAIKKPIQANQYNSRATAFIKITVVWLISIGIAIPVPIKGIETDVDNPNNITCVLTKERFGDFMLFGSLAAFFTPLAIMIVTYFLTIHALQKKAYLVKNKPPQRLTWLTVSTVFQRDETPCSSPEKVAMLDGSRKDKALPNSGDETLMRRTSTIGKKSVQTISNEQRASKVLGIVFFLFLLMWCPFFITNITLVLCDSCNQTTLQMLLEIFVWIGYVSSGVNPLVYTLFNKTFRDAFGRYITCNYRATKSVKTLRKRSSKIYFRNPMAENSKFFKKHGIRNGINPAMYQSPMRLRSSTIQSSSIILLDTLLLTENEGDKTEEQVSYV
Chain of Cannabinoid receptor 1 (P21554 whole entry): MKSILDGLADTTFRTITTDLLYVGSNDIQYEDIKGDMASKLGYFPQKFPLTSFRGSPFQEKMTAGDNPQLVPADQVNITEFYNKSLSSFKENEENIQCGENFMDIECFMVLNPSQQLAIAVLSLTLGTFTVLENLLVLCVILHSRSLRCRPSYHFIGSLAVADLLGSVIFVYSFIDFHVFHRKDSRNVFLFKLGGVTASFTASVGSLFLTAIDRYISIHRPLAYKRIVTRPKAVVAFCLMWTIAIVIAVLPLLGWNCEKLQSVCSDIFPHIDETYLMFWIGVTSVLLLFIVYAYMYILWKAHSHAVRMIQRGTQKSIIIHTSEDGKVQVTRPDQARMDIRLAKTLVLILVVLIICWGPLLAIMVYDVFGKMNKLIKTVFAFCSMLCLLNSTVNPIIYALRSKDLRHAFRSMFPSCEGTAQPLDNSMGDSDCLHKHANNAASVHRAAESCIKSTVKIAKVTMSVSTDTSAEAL
Chain of Growth hormone secretagogue receptor type 1 (Q92847 whole entry): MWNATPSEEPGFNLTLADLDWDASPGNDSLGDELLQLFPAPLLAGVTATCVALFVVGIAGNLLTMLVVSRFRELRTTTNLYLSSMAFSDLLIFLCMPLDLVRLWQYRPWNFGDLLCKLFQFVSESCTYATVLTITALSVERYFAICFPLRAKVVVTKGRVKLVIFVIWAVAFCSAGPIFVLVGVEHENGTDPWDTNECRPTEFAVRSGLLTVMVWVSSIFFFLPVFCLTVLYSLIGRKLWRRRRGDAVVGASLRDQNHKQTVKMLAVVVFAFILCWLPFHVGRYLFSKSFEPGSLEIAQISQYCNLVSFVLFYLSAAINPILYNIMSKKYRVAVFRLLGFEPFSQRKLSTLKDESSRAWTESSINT
Chain of Motilin receptor (O43193 whole entry): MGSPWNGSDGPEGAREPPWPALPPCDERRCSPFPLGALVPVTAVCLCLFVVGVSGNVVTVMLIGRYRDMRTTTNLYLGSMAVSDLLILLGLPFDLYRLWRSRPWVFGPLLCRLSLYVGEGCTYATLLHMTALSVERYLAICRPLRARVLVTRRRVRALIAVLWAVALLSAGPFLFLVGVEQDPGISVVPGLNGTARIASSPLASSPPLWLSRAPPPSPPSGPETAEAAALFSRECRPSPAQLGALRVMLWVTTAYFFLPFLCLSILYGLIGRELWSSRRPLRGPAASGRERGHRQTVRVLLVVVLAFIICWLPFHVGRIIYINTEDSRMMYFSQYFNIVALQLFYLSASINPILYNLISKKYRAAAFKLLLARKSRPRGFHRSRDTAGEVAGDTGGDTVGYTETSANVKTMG
Chain of Sodium-dependent serotonin transporter (P31645 whole entry): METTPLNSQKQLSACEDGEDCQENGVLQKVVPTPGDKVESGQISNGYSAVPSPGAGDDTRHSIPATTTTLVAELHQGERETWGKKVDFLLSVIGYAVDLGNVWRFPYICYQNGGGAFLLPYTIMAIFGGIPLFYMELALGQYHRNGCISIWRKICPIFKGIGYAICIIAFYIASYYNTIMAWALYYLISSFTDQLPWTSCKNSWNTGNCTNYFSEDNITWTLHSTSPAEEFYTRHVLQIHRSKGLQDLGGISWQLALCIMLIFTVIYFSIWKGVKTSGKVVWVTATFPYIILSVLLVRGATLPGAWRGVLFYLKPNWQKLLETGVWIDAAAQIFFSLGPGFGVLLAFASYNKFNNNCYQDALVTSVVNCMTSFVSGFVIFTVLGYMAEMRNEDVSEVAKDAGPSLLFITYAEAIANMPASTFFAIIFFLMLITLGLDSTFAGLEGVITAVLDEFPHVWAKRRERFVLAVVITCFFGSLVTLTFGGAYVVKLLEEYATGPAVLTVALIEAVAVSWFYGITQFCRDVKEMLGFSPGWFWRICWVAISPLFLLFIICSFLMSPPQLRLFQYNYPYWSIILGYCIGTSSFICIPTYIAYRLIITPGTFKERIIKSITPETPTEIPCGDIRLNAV
Chain of Gamma-aminobutyric acid receptor subunit alpha-1 (P62813 whole entry): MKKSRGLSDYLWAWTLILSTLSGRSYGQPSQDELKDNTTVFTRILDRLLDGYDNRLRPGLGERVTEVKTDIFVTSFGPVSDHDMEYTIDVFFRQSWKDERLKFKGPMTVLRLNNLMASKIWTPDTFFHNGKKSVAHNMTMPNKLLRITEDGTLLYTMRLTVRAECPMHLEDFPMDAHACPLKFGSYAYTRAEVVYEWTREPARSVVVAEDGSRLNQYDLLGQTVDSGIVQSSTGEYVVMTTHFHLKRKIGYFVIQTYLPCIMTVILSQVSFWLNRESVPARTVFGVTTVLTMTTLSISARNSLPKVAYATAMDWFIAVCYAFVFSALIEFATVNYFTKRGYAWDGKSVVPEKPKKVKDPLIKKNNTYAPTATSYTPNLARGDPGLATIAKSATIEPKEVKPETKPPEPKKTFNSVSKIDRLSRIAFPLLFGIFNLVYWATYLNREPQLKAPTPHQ
Chain of Adenosine receptor A2a (P29274 whole entry): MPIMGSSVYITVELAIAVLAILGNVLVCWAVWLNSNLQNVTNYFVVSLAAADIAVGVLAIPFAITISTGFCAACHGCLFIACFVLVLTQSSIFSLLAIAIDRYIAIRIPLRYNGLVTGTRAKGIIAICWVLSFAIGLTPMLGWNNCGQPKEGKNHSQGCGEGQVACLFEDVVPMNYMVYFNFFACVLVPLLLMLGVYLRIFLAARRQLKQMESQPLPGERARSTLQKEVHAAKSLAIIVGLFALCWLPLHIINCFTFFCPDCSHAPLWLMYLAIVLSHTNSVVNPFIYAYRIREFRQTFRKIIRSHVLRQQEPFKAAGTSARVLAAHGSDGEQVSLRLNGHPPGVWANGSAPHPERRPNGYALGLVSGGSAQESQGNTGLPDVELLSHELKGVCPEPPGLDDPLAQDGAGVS
Chain of D(3) dopamine receptor (P35462 whole entry): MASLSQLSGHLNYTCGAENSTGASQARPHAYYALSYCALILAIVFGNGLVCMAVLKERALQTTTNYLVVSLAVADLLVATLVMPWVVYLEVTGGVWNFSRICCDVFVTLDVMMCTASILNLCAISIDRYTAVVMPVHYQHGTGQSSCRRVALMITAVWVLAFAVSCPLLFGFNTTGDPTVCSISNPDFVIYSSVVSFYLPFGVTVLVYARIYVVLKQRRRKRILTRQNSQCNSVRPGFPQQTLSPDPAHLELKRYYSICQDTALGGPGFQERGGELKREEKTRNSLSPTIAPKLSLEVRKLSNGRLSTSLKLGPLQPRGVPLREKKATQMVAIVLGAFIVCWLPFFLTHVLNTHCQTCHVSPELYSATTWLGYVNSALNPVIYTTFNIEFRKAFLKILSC
Chain of Sodium-dependent dopamine transporter (Q01959 whole entry): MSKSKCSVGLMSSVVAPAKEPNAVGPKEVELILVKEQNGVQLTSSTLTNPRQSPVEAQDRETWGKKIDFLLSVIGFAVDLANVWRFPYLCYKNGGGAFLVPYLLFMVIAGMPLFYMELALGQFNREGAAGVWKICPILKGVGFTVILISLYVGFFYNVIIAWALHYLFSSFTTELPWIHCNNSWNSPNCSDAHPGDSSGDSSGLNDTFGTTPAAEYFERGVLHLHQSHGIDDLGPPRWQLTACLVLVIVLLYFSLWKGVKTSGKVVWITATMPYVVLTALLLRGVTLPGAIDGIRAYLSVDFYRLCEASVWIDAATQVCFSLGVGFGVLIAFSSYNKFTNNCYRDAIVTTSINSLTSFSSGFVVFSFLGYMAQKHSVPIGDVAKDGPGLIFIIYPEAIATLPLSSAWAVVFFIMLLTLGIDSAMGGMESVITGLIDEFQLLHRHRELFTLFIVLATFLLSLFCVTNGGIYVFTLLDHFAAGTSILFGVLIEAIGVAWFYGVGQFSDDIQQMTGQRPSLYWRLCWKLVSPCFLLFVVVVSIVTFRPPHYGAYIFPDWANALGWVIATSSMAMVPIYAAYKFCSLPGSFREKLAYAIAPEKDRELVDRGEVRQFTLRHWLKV

SMILES | AC50 (Adenosine receptor A2a) [µM] | AC50 [1] [µM] | AC50 [2] [µM] | AC50 [3] [µM] | AC50 [4] [µM] | AC50 (Cannabinoid receptor 1) [µM] | AC50 [5] [µM] | AC50 [6] [µM] | AC50 [7] [µM] | AC50 [8] [µM] | AC50 [9] [µM] | AC50 (Motilin receptor) [µM] | AC50 [10] [µM] | AC50 [11] [µM] | AC50 (D(3) dopamine receptor) [µM]
CCOC(=O)[C@H](CCc1ccccc1)N[C@@H](C)C(=O)N1C(=O)N(C)C[C@H]1C(=O)O | > 30 | > 30 | > 30 | > 30 | > 30 | > 30 | > 30 | > 30 | > 30 | > 30 | > 30 | > 30 | > 30 | > 30 | > 30
O=C(O)CCCCCCNC1c2ccccc2CCc2ccccc21 [AMINEPTINE] | > 30 | > 30 | > 30 | > 30 | > 30 | > 30 | > 30 | > 30 | > 30 | > 30 | 0.17 | > 30 | 1.5 | > 30 | > 30
NCC(=O)CCC(=O)O [AMINOLEVULINIC ACID] | > 30 | > 30 | > 30 | > 30 | > 30 | > 30 | > 30 | > 30 | > 30 | > 30 | > 30 | > 30 | > 30 | > 30 | > 30
COc1ccccc1OCCNCC(O)c1ccc(C)c(S(N)(=O)=O)c1 (stereo not given) [AMOSULALOL] | > 30 | 2.3 | > 30 | > 30 | > 30 | > 30 | > 30 | > 30 | > 30 | > 30 | > 30 | > 30 | > 30 | 29 | 0.12
COC(=O)C1=C(C)NC(C)=C(C(=O)OC2CCCN(Cc3ccccc3)C2)C1c1cccc([N+](=O)[O-])c1 (stereo not given) [BENIDIPINE] | > 30 | 27 | > 30 | 18 | > 30 | > 30 | > 30 | 26 | > 30 | > 30 | > 30 | 3.5 | 12 | > 30 | 16
CC(=O)OCC(=O)[C@@]12N=C(C)O[C@@H]1C[C@H]1[C@@H]3CCC4=CC(=O)C=C[C@]4(C)[C@H]3[C@@H](O)C[C@@]12C [DEFLAZACORT] | > 30 | > 30 | > 30 | > 30 | > 30 | > 30 | > 30 | > 30 | > 30 | > 30 | > 30 | > 30 | > 30 | > 30 | > 30
